Reference: ChEMBL document CHEMBL1667830, “Non-oxime inhibitors of B-Raf(V600E) kinase” (Bioorg Med Chem Lett, 2011)
pIC50: −log10 of the molar value.

Experiments:
[1] = target: Serine/threonine-protein kinase B-raf (Homo sapiens, UniProt P15056, V600E); assay: Inhibition of B-Raf V600E mutant
[2] = Permeability across human Caco2 cells; format: ADME, cell-based; conditions: Caco-2, read-out: permeability
[3] = Cmax in mouse at 25 mg/kg, po; format: ADME, organism-based; set-up: dose 25 mg/kg, route oral; conditions: in vivo
[4] = AUC (0 to infinity) in mouse at 25 mg/kg, po; format: ADME, organism-based; set-up: time infinity, dose 25 mg/kg, route oral; conditions: plasma

Sequence of Serine/threonine-protein kinase B-raf (P15056 2-766 V600E limits assumed): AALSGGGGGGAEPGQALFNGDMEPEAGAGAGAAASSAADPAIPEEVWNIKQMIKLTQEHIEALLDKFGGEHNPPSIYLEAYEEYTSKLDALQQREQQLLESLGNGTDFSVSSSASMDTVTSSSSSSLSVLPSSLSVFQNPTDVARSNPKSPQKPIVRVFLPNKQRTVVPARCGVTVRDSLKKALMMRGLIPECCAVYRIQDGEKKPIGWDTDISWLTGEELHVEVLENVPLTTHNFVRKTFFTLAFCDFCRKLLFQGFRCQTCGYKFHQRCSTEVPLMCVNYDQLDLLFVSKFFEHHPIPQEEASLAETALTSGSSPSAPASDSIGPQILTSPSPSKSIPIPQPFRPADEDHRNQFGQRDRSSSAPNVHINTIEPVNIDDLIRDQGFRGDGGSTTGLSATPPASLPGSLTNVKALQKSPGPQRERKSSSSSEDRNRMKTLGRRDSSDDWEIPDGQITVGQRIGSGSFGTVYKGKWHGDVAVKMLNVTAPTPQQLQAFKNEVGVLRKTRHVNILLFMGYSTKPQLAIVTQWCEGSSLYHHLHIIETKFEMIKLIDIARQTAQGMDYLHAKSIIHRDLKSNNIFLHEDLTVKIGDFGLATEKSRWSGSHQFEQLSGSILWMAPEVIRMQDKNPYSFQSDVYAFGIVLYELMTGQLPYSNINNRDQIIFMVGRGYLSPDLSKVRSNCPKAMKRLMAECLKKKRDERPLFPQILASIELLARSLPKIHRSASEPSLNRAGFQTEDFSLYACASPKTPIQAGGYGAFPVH

Row | pIC50 [1] | SMILES | further results
1 | 7.42 | CC(C)NC(=O)c1oc2cnccc2c1Nc1ccc2c(c1)Cc1c[nH]nc1-2 | 
2 | 9.30 | O/N=C1\NCc2cc(Nc3c(-c4ncccn4)oc4cnccc34)ccc21 | 
3 | 8.70 | Fc1ccc(Nc2c(-c3ncccn3)oc3cnccc23)c2cn[nH]c12 | 
4 | 9.10 | CCc1n[nH]c2c(Cl)ccc(Nc3c(-c4ncccn4)oc4cnccc34)c12 | 
5 | 9.52 | Cc1cc(Nc2c(-c3ncccn3)oc3cnccc23)c2cn[nH]c2c1Cl | 
6 | 8.40 | c1cnc(-c2oc3cnccc3c2Nc2ccc3c(c2)Cc2c[nH]nc2-3)nc1 | Papp [2]: > 8 ×10⁻⁶ cm/s; Cmax [3]: 2220 ng/mL; AUC(0-inf) [4]: 10400 ng·h/mL
7 | 7.52 | CCOC(=O)c1oc2cnccc2c1Nc1cnc2ccccc2c1 | 
8 | 8.37 | NCCCc1n[nH]c2c(Cl)ccc(Nc3c(-c4ncccn4)oc4cnccc34)c12 | 
9 | 8.85 | CC(C)NC(=O)c1oc2cnccc2c1Nc1ccc2c(O)cccc2c1 | 
10 | 8.38 | Clc1ccc(Nc2c(-c3ncccn3)oc3cnccc23)c2cn[nH]c12 | Papp [2]: < 2 ×10⁻⁶ cm/s
11 | 8.62 | Cc1ccc(Nc2c(-c3ncccn3)oc3cnccc23)c2cn[nH]c12 | 
12 | 8.57 | CC(C)NC(=O)c1oc2cnccc2c1Nc1ccc(Cl)c2[nH]ncc12 | 
13 | 8.80 | O=C(Nc1ncccn1)c1oc2cnccc2c1Nc1ccc(Cl)c(O)c1 | 
14 | 8.40 | CC(C)NC(=O)c1oc2cnccc2c1Nc1ccc(Cl)c(O)c1 | 
15 | 8.70 | CN1CCN(Cc2cnc(-c3oc4cnccc4c3Nc3ccc4c(O)cccc4c3)nc2)CC1 | 
16 | 8.52 | CCOC(=O)c1oc2cnccc2c1Nc1ccc2c(O)c(F)ccc2c1 | 

Row | pIC50 [1] | SMILES | further results
17 | 9.10 | OCCCc1n[nH]c2c(Cl)ccc(Nc3c(-c4ncccn4)oc4cnccc34)c12 | 
18 | 8.30 | CN(C)/C=C/NC(=O)c1oc2cnccc2c1Nc1ccc2c(O)cccc2c1 | 
19 | 7.80 | O=C1CCc2cc(Nc3c(-c4ncccn4)oc4cnccc34)ccc21 | 
20 | > 8.70 | CCOC(=O)c1oc2cnccc2c1Nc1ccc2c(c1)CC/C2=N/O | 
21 | 6.75 | CCOC(=O)c1oc2cnccc2c1Nc1ccc2ccccc2c1 | 
22 | 8.96 | CCOC(=O)c1oc2cnccc2c1Nc1ccc2c(O)cccc2c1 | 
23 | 7.28 | CCOC(=O)c1oc2cnccc2c1Nc1ccc2c(N)cccc2c1 | 
24 | 7.85 | c1cnc(-c2oc3cnccc3c2Nc2cccc3[nH]ncc23)nc1 | 
25 | 7.03 | CCOC(=O)c1oc2cnccc2c1Nc1ccc2c(c1)CCC2=O | 
26 | 8.64 | CCOC(=O)c1oc2cnccc2c1Nc1ccc(Cl)c(O)c1 | 
27 | 8.28 | CC(C)NC(=O)c1oc2cnccc2c1Nc1ccc2c(c1)CN/C2=N\O | 
28 | 7.37 | CN/C=C/NC(=O)c1oc2cnccc2c1Nc1ccc2c(c1)Cc1c[nH]nc1-2 | 
29 | 6.62 | Clc1ccc2[nH]ncc2c1Nc1c(-c2ncccn2)oc2cnccc12 | Papp [2]: 2 ×10⁻⁶ cm/s; Cmax [3]: 3730 ng/mL; AUC(0-inf) [4]: 17000 ng·h/mL
30 | 9.00 | Oc1cccc2cc(Nc3c(-c4ncccn4)oc4cnccc34)ccc12 | 
31 | 8.24 | Clc1cc(Nc2c(-c3ncccn3)oc3cnccc23)c2cn[nH]c2c1 | 
